Common to all, as to type: functional
One test deals with U-251. In words: Antitumor activity against human U251 cells.
A further test deals with HL-60. Kind of test: Antitumor activity against human HL60 cells.
For a further test, the system named is SF-295. Kind of test: Antitumor activity against human SF295 cells.
A further test relates to RXF 393. Kind of test: Antitumor activity against human RXF393 cells.
The test system of another test is HOP-62. Kind of test: Antitumor activity against human HOP62 cells.
The test system of another test is DMS-273. Kind of test: Antitumor activity against human DMS273 cells.
The test system of a further test is CCRF-CEM. In words: Antitumor activity against human CCRF-CEM cells.
Test [1] is described as follows: Antitumor activity against human […] cells.
A further test relates to P388. Kind of test: Antitumor activity against mouse P388 cells. Particulars: for EC50: read-out: ED50 (the source's name).

Usually GI50 stands for the concentration that inhibits growth by half. The low end stands for greater sensitivity of the cells, the high end for lower sensitivity of the cells. Regarding `C[C@@H]1[C@]2(O[C@H]3C=C4[C@@H]5CC[C@H]6Cc7nc8c(nc7C[C@]6(C)[C@H]5C[C@@H](O)[C@]4(C)[C@]31O)C[C@@H]1CC[C@H]3C4=C[C@@H]5O[C@]6(CC[C@](C)(O)CO6)C[C@]5(O)[C@@]4(C)[C@H](O)C[C@@H]3[C@@]1(C)C8)O[C@](C)(CO)C[C@H]2O` [CEPHALOSTATIN 7], the GI50 in the test on U-251, with HL-60, with SF-295, in the test with RXF 393, in the test on HOP-62 and in the test on DMS-273 was under 0.1 nM in each case. Also, the GI50 (in the test with CCRF-CEM; in test [1]; in the test on P388) was under 0.1 nM each time.

`C[C@@H]1C[C@]2(O[C@H]3C=C4[C@@H]5CC[C@H]6Cc7nc8c(nc7C[C@]6(C)[C@H]5C[C@@H](O)[C@]4(CO)[C@H]3[C@@H]2C)C[C@@H]2CC[C@H]3C4=C[C@@H]5O[C@]6(O[C@](C)(CO)C[C@H]6O)[C@@H](C)[C@]5(O)[C@@]4(C)[C@H](O)C[C@@H]3[C@@]2(C)C8)OC1(C)C` [CEPHALOSTATIN 8]: the concentration for 50% growth inhibition (GI50) with U-251, with HL-60, in the test with SF-295, in the test with RXF 393, with HOP-62 and with DMS-273 was under 0.1 nM each time. Besides, the GI50 (in the test with CCRF-CEM; in test [1]; in the test on P388) was under 0.1 nM throughout.

For `C[C@@H]1[C@H]2CC=C3[C@@H]4CC[C@H]5Cc6nc7c(nc6C[C@]5(C)[C@H]4CC(=O)[C@@]32COC1(O)[C@H](O)CC(C)(C)O)C[C@@H]1CC[C@H]2C3=C[C@@H]4O[C@]5(O[C@](C)(CO)C[C@H]5O)[C@@H](C)[C@]4(O)[C@@]3(C)[C@H](O)C[C@@H]2[C@@]1(C)C7` (stereo not given in full) [CEPHALOSTATIN 9], the GI50 with U-251, in the test with HL-60, in the test with SF-295, in the test with RXF 393, with HOP-62 and in the test with DMS-273 was under 0.1 nM in each case. Besides, the GI50 (with CCRF-CEM; in test [1]; with P388) was under 0.1 nM throughout.

In the case of `C[C@H]1[C@H]2[C@H](C=C3[C@@H]4CC[C@H]5Cc6nc7c(nc6C[C@]5(C)[C@@H]4C[C@@H](O)[C@@]32C)C[C@@H]2CC[C@@H]3[C@H](CC(=O)[C@]34C[C@@H]3O[C@]5(CCC(C)(C)O5)[C@@H](C)[C@@H]3[C@]4(C)O)[C@@]2(C)C7)O[C@]12C[C@](C)(CO)CO2` [RITTERAZINE X], in the test with P388, the EC50 was found to be 3400 nM.

As to `C[C@H]1[C@H]2[C@H](C=C3[C@@H]4CC[C@H]5Cc6nc7c(nc6C[C@]5(C)[C@@H]4C[C@@H](O)[C@@]32C)C[C@@H]2CC[C@H]3[C@H]4C[C@@H]5O[C@@]6(CCC(C)(C)O6)[C@@H](C)[C@@H]5[C@@]4(C)[C@H](O)C[C@@H]3[C@@]2(C)C7)O[C@]12CC[C@](C)(O)CO2` [RITTERAZINE Y], the EC50 in the test on P388 was 4 nM.

Take `C[C@@H]1[C@H](C)[C@]2(OC[C@]34C(=O)C[C@@H]5[C@@H](CC[C@H]6Cc7nc8c(nc7C[C@@]65C)C[C@@H]5CC[C@@H]6[C@H](CC(=O)[C@]67C[C@@H]6O[C@@]9(CCC(C)(C)O9)[C@@H](C)[C@@H]6[C@]7(C)O)[C@@]5(C)C8)[C@H]3C[C@H](O)[C@@H]4[C@H]2C)OC1(C)C` [RITTERAZINE Z]: in the test with P388, the EC50 was 2200 nM.

These data come from ChEMBL document CHEMBL1144741, “Review of cytotoxic cephalostatins and ritterazines: isolation and synthesis” (2008).
